Holding throughout (format): functional
Assay [1] relates to MCF7. In words: Cytotoxicity against human MCF7 cells assessed as cell growth at 10^-8 M after 24 hrs by SRB assay. To be noted: MCF7, 24 h, read-out: Activity.
Assay [2] in a line: Cytotoxicity against human SF539 cells assessed as cell growth at 10^-7 M after 24 hrs by SRB assay. Conditions: SF-539, 24 h, read-out: Activity.
Assay [3] can be described thus: Cytotoxicity against human BT549 cells assessed as cell growth at 10^-7 M after 24 hrs by SRB assay. To be noted: BT-549, 24 h, read-out: Activity.
Assay [4] can be described thus: Cytotoxicity against human UACC257 cells assessed as cell growth at 10^-7 M after 24 hrs by SRB assay. Conditions: UACC-257, 24 h, read-out: Activity.
Assay [5] is described as follows: Cytotoxicity against human HCT15 cells assessed as cell growth at 10^-5 M after 24 hrs by SRB assay. Conditions: HCT-15, 24 h, read-out: Activity.
Assay [6] is described as follows: Cytotoxicity against human UACC62 cells assessed as cell growth at 10^-7 M after 24 hrs by SRB assay. To be noted: UACC-62, 24 h, read-out: Activity.
Assay [7] can be described thus: Cytotoxicity against human IGROV1 cells assessed as cell growth at 10^-8 M after 24 hrs by SRB assay. Conditions: IGROV-1, 24 h, read-out: Activity.
Assay [8] deals with CCRF-CEM. In words: Cytotoxicity against human CCRF-CEM cells assessed as cell growth at 10^-5 M after 24 hrs by SRB assay. To be noted: read-out: Activity.
Assay [9] can be described thus: Cytotoxicity against human HOP92 cells assessed as cell growth at 10^-4 M after 24 hrs by SRB assay. To be noted: HOP-92, 24 h, read-out: Activity.
The next assay relates to M14. In words: Cytotoxicity against human M14 cells assessed as cell growth at 10^-6 M after 24 hrs by SRB assay. Conditions: M14, 24 h, read-out: Activity.
The test system of a further assay is SK-MEL-2. In words: Cytotoxicity against human SK-MEL-2 cells assessed as cell growth at 10^-5 M after 24 hrs by SRB assay. Conditions: SK-MEL-2, 24 h, read-out: Activity.
A short description of assay [10]: Cytotoxicity against human RXF393 cells assessed as cell growth at 10^-5 M after 24 hrs by SRB assay. Conditions: RXF 393, 24 h, read-out: Activity.
A short description of assay [11]: Cytotoxicity against human SKOV3 cells after 24 hrs by SRB assay. Conditions: SK-OV-3, 24 h.
Another assay concerns EKVX. In words: Cytotoxicity against human EKVX cells assessed as cell growth at 10^-8 M after 24 hrs by SRB assay. To be noted: read-out: Activity.
The subject of another assay is SN12C. In words: Cytotoxicity against human SN12C cells assessed as cell growth at 10^-8 M after 24 hrs by SRB assay. To be noted: read-out: Activity.
The subject of assay [12] is ACHN. In words: Cytotoxicity against human ACHN cells after 24 hrs by SRB assay.
Assay [13] in a line: Cytotoxicity against human SKOV3 cells assessed as cell growth at 10^-7 M after 24 hrs by SRB assay. Conditions: SK-OV-3, 24 h, read-out: Activity.
Assay [14] is described as follows: Cytotoxicity against human Hs 578T cells assessed as cell growth at 10^-6 M after 24 hrs by SRB assay. To be noted: read-out: Activity.
Another assay deals with NCI-H322M. In words: Cytotoxicity against human NCI-H322M cells assessed as cell growth at 10^-7 M after 24 hrs by SRB assay. To be noted: read-out: Activity.
Assay [15] in a line: Cytotoxicity against human OVCAR3 cells assessed as cell growth at 10^-5 M after 24 hrs by SRB assay. To be noted: OVCAR-3, 24 h, read-out: Activity.
In assay [16] the test system is MCF7. In words: Cytotoxicity against human MCF7 cells assessed as cell growth at 10^-7 M after 24 hrs by SRB assay. Conditions: MCF7, 24 h, read-out: Activity.
Assay [17] can be described thus: Cytotoxicity against human OVCAR4 cells assessed as cell growth at 10^-7 M after 24 hrs by SRB assay. To be noted: OVCAR-4, 24 h, read-out: Activity.
A further assay concerns NCI-H23. In words: Cytotoxicity against human NCI-H23 cells assessed as cell growth at 10^-7 M after 24 hrs by SRB assay. To be noted: NCI-H23, 24 h, read-out: Activity.
Assay [18] concerns CCRF-CEM. In words: Cytotoxicity against human CCRF-CEM cells assessed as cell growth at 10^-6 M after 24 hrs by SRB assay. Conditions: read-out: Activity.
The nature of assay [19]: Cytotoxicity against human UO31 cells assessed as cell growth at 10^-6 M after 24 hrs by SRB assay. To be noted: UO-31, 24 h, read-out: Activity.
Assay [20] in a line: Cytotoxicity against human SKOV3 cells assessed as cell growth at 10^-5 M after 24 hrs by SRB assay. Conditions: SK-OV-3, 24 h, read-out: Activity.
The nature of assay [21]: Cytotoxicity against human BT549 cells assessed as cell growth at 10^-4 M after 24 hrs by SRB assay. To be noted: BT-549, 24 h, read-out: Activity.
For assay [22], the system named is T47D. In words: Cytotoxicity against human T47D cells assessed as cell growth at 10^-5 M after 24 hrs by SRB assay. To be noted: read-out: Activity.
For assay [23], the system named is ACHN. In words: Cytotoxicity against human ACHN cells assessed as cell growth at 10^-6 M after 24 hrs by SRB assay. To be noted: read-out: Activity.
A further assay deals with KM12. In words: Cytotoxicity against human KM12 cells after 24 hrs by SRB assay. To be noted: KM12, 24 h.
A short description of assay [24]: Cytotoxicity against human SNB19 cells assessed as cell growth at 10^-4 M after 24 hrs by SRB assay. Conditions: SNB-19, 24 h, read-out: Activity.
Assay [25] is described as follows: Cytotoxicity against human RPMI8226 cells assessed as cell growth at 10^-4 M after 24 hrs by SRB assay. Conditions: RPMI-8226, 24 h, read-out: Activity.
A short description of assay [26]: Cytotoxicity against human HL-60(TB) cells assessed as cell growth at 10^-4 M after 24 hrs by SRB assay. Conditions: HL-60, 24 h, read-out: Activity.
For assay [27], the system named is T47D. In words: Cytotoxicity against human T47D cells assessed as cell growth at 10^-6 M after 24 hrs by SRB assay. Conditions: read-out: Activity.
Assay [28] is described as follows: Cytotoxicity against human OVCAR4 cells assessed as cell growth at 10^-6 M after 24 hrs by SRB assay. Conditions: OVCAR-4, 24 h, read-out: Activity.
Assay [29] can be described thus: Cytotoxicity against human HCT116 cells assessed as cell growth at 10^-8 M after 24 hrs by SRB assay. Conditions: HCT-116, 24 h, read-out: Activity.
For a further assay, the system named is SR. In words: Cytotoxicity against human SR cells assessed as cell growth at 10^-8 M after 24 hrs by SRB assay. To be noted: read-out: Activity.
Assay [30] can be described thus: Cytotoxicity against human PC3 cells assessed as growth inhibition at 10 uM after 24 hrs by SRB assay. To be noted: PC-3, 24 h, read-out: GI.
Assay [31] in a line: Cytotoxicity against human SNB75 cells assessed as growth inhibition at 10 uM after 24 hrs by SRB assay. Conditions: SNB-75, 24 h, read-out: GI.
Setting [32] is: read-out: LC50 (the source's name).
The mark [33] stands for this setting: read-out: pLC50 (the source's name) (converted).

As for `O=C(Nc1cc(-c2cccnc2)nc(NCCCN2CCOCC2)n1)c1cc(Br)cc(C(F)(F)F)c1`, the growth at 0.01 µM in the assay on MCF7 [1] was 95%; in [7], 103%; with EKVX, 92%; with SN12C it was 95%; in assay [29], 102%; in the assay with SR, 106%. The growth at 0.1 µM in [2] came out at 87%; in [3], 97%; in assay [4] it was 100%; in assay [6], 90%; in [13], 93%; in the assay on NCI-H322M it was 107%. Besides, the values for the growth at 0.1 µM (in the assay on MCF7 [16]; in assay [17]; in the assay on NCI-H23) were 89%, 90% and 98%, respectively. For the same compound, the growth at 10 µM in assay [5] was -32%; in the assay on CCRF-CEM [8], 6%; with SK-MEL-2, 27%; in [10], -73%; in assay [15] it was 12%; in [20], 42%. In addition, the growth at 10 µM with T47D [22] turned out to be 21%. Besides, the growth at 100 µM in assay [9] is -94%; in [21], -86%; in [24], -84%; in assay [25], -24%; in assay [26] it was -51%. Also, the growth at 1 µM with M14 is 87%; in [14] it was 94%; in the assay with CCRF-CEM [18], 103%; in assay [19] it was 69%; in the assay on ACHN [23], 92%; with T47D [27], 88%. For the same compound, in assay [28], the growth at 1 µM was found to be 84%. The GI50 in [11] (read-out: GI50) is 7.26 µM; in assay [11] (read-out: pGI50 (converted)), 7.24 µM; with ACHN [12] (read-out: GI50) it was 3.04 µM; in the assay with ACHN [12] (read-out: pGI50 (converted)), 3.02 µM; in the assay on KM12 (read-out: GI50) it was 3.62 µM; in the assay on KM12 (read-out: pGI50 (converted)), 3.63 µM. The CC50 in assay [11] (setting [32]) is 44.9 µM; in assay [11] (setting [33]), 44.7 µM; in the assay with ACHN [12] (setting [32]), 44.6 µM; with ACHN [12] (setting [33]) it was 44.7 µM; in the assay on KM12 (setting [32]), 41 µM; in the assay with KM12 (setting [33]) it was 40.7 µM. Moreover, the TGI was 19.9 µM in assay [11] (read-out: TGI); 20 µM in assay [11] (read-out: pTGI (converted)); 11.3 µM in the assay on ACHN [12] (read-out: TGI); 11.2 µM in the assay on ACHN [12] (read-out: pTGI (converted)); 13.6 µM in the assay on KM12 (read-out: TGI); 13.5 µM in the assay on KM12 (read-out: pTGI (converted)).

For the compound `COCCCNc1nc(NC(=O)c2cc(Br)cc(C(F)(F)F)c2)cc(-c2cccnc2)n1`, the inhibition of growth at 10 µM in [30] turned out to be 29.4%.

Regarding `COCCCNc1nc(NC(=O)c2cc(OC)cc(OC)c2)cc(-c2cccnc2)n1`, the inhibition of growth at 10 µM in assay [31] was determined as 26.9%.
